Patent US7183099B2, “Inhibitors of autoinducer transporters” (Princeton University, priority 2001, dated 2007)
“Also recorded” adds a separate entry of the source. Like-named read-outs stand apart in the source and are kept apart here.

Assays:
[1] = Stability characterisation of the signaling activity; format: physicochemical
wild type S. typhimurium = test: Growth on AI-2 as sole carbon source; format: cell-based
Description: One possibility is that AI-2 is initially used as a signal, then, at subsequent times, when AI-2 is no longer required for signal transduction, S. typhimurium internalizes it for use as a carbon source. To test this idea, we attempted to grow wild type S. typhimurium on in vitro prepared AI-2 as a sole carbon source. […] Therefore, growth on AI-2 cannot account for its disappearance from the medium. A second possibility is that the removal of AI-2 activity is required for its modification to another signal. For example, the LsrE epimerase, or another enzyme, could convert AI-2 into an internal signal. Finally, AI-2 could be internalized for degradation. In this case, elimination of AI-2 could serve to terminate the signalling process. Signal production coupled to subsequent elimination could allow S. typhimurium the flexibility to transition between several modes of existence. For example, as AI-2 is associated with the presence of many species of bacteria, high levels of AI-2 could be indicative of the transition from outside a host to the intestinal environment, whereas low levels of AI-2 could signal S. typhimurium that it has exited the intestinal tract for the next location in the infection (i.e., the macrophage) where S. typhimurium is not in association with high numbers of commensal bacteria. […]

metE-lacZ fusion = metE-lacZ fusion transcription; format: cell-based, S. typhimurium
Description: The insertion sites of the eight luxS regulated MudJ fusions were determined by arbitrary PCR amplification of the MudJ-chromosome fusion junctions, followed by BLAST database analysis (Caetano-Anolles, 1993; Altschul et al., 1990). One MudJ insertion was located in the metE gene. MetE is involved in the biosynthesis of methionine, that is a precursor of SAM (Weissbach and Brot, 1991). Specifically, MetE catalyzes the final step in methionine biosynthesis in the absence of vitamin B12. Transcription of metE is induced when the substrate homocysteine is available and when the intracellular concentration of methionine is low (Urbanowski and Stauffer, 1989). We reason that metE is not a true target of AI-2 regulation, but instead metE transcription is induced in the wild type luxS strain relative to the luxS null strain because homocysteine is produced during the generation of AI-2 in the LuxS^+ strain.

[2] = system: V. harveyi luxN, luxS double mutant reporter strain; test: Luminescence response of V. harveyi luxN, luxS double mutant reporter; format: cell-based, Vibrio harveyi; settings: culture fluids of MM30 (AI-1) and BB152 (AI-2) as sources
Description: Verification that the luxN, luxS Double Mutant Responds to AI-2. […] This was verified in a luminescence assay for response to V. harveyi AI-1 and AI-2. V. harveyi strain MM30 (luxS::Tn5) that is phenotypically AI-1^+, AI-2^−, and V. harveyi strain BB152 (luxM::Tn5) that is phenotypically AI-1^−, AI-2^+ were used as the sources of AI-1 and AI-2 respectively. The AI-1 and AI-2 present in culture fluids of these strains was tested for stimulation of light production of the V. harveyi luxN, luxS double mutant reporter strain. In this assay, autoinducer preparations from MM30, BB152 or sterile medium controls were added to the wells of microtiter plates, followed by the addition of the V. harveyi reporter strain. The resulting light production was monitored using a liquid scintillation counter in the chemiluminescence mode. Maximal stimulation of light production in the V. harveyi luxN, luxS reporter strain was compared to that produced by the Sensor 1^+, Sensor 2^− V. harveyi strain BB886 and the Sensor 1^−, Sensor 2^+V. harveyi strain BB170. These two V. harveyi strains are routinely used in this assay as reporters of AI-1 and AI-2 activity respectively.

[3] = S. typhimurium cell-free spent culture fluids; cited from earlier work
[4] = system: ftsQ1p2p-lacZ reporter (SdiA); test: SdiA regulated ftsQ1p2p-lacZ reporter assay; format: cell-based, E. coli; settings: 10% osmotic shock fluids containing AI-2 activity, 2 h
Description: Analysis of the effect of autoinducer on SdiA regulated gene expression. A sequence that includes the ftsQ1p and ftsQ2p promoters (Wang et al., 1991, supra) was amplified from E. coli MG1655 chromosomal DNA using the following primers: • ftsQ1p, 5′-[…]-3′ (SEQ ID NO: 19); • ftsQ2p, 5′-[…]-3′ (SEQ ID NO: 20).
The amplified product contained both the ftsQ promoters and the first 14 codons of the ftsQ gene flanked by BamHI and Bg1II sites. The ftsQ1p2p PCR product was cloned into the BamHI site of vector pMLB1034 (Silhavy et al., Experiments with Gene Fusions, Cold Spring Harbor Press, 1984) to generate a lacZ fusion that contained the promoters, ribosome binding site, and initiation codon of ftsQ. A correctly oriented clone, pMS207, and a clone containing the ftsQ1p2p insert in the opposite orientation, pMS209, were chosen for further analysis. Both inserts were sequenced to ensure that no errors were introduced during the PCR reaction.
For ftsQ regulation in E. coli, the plasmids pMS207 and pMS209 were transformed into E. coli strain MC4100 (Silhavy et al., 1984, supra), and the transformants were grown overnight in LB containing 100 mg/L ampicillin at 30° C. with aeration. For rck regulation, S. typhimurium strains BA1105 (rck::MudJ) and BA1305 (rck::MudJ sdiA) were grown overnight in LB containing 100 mg/L kanamycin at 30° C. with aeration. […]

rck::MudJ fusion (SdiA) = test: SdiA regulated rck::MudJ fusion assay; format: cell-based; settings: AI-2 from E. coli or S. typhimurium; sdiA+ and sdiA− backgrounds
Description: For ftsQ regulation in E. coli, the plasmids pMS207 and pMS209 were transformed into E. coli strain MC4100 (Silhavy et al., 1984, supra), and the transformants were grown overnight in LB containing 100 mg/L ampicillin at 30° C. with aeration. For rck regulation, S. typhimurium strains BA1105 (rck::MudJ) and BA1305 (rck::MudJ sdiA) were grown overnight in LB containing 100 mg/L kanamycin at 30° C. with aeration. The overnight cultures were diluted 20-fold into fresh medium and grown for an additional 4.5 h. At this time, each culture was divided into five identical aliquots and 10% (v/v) of one of the following was added to each aliquot: LB, 0.4 M NaCl, […] osmotic shock fluids from S. typhimurium LT2, E. coli O157 or E. coli strain DH5 (negative control). The osmotic shock fluids were prepared as described above, following pregrowth of the S. typhimurium LT2 and E. coli in LB containing 0.5% glucose for 6h. The cell suspensions were incubated at 30° C. for 2 h, after which standard -galactosidase reactions were performed on the samples (Miller, A Short Course in Bacterial Genetics, Cold Spring Harbor Laboratory Press, 1992).

## CC(=O)C(=O)C(O)CO (stereo not shown) [AI-2, 4,5-dihydroxy-2,3-pentanedione]
[1]
  heat resistance of the activity: heat resistant to about 80 but not 100 °C
  stability of the activity to acid and base: acid stable and base labile
[1]; cell-free culture supernatants and 0.4 M NaCl osmotic shock fluids, 30 °C
  time the activity is stable in cell-free fluids: at least 24 h
[1]; listed as signaling activity
  heat resistance of the activity: heat resistant to 80 but not 100 °C
  stability of the activity to acid and base: acid stabile and base labile
[1]; listed as signaling compound
  heat resistance of the activity: heat resistant to 80 °C but not 100 °C
  stability of the activity to acid and base: acid stable and base labile
Wild type S. typhimurium
  growth on in vitro prepared AI-2 as a sole carbon source: could not grow on AI-2
metE-lacZ fusion
  effect of exogenous AI-2 on transcription of the metE-lacZ fusion: did not affect the transcription of the metE-lacZ fusion
[2]
  stimulation of light production by exogenous autoinducer: stimulated to produce light
[3]
  stability of AI-2 in cell-free culture fluids: stable for long periods of time; also recorded: remains active for long periods of time
[4]
  change in β-galactosidase level of MC4100/pMS207: this level of activity did not change under any of the conditions tested here
rck::MudJ fusion (SdiA)
  change in β-galactosidase production of rck::MudJ: No change
